pIC50: −log10 of the molar value.
Legend:
HOP-62 = experiment: NCI-60 screen (SRB), non-small cell lung cancer; settings: Homo sapiens; for pIC50: HOP-62; for CC50: HOP-62, read-out: LC50
T-47D = experiment: NCI-60 screen (SRB), breast cancer; settings: Homo sapiens, T47D; for CC50: read-out: LC50
NCI-H460 = experiment: NCI-60 screen (SRB), non-small cell lung cancer; settings: Homo sapiens; for pIC50: NCI-H460; for CC50: NCI-H460, read-out: LC50
HS 578T = experiment: NCI-60 screen (SRB), breast cancer; settings: Homo sapiens, Hs-578T; for CC50: read-out: LC50
HCC-2998 = experiment: NCI-60 screen (SRB), colon cancer; settings: Homo sapiens; for pIC50: HCC 2998; for CC50: HCC 2998, read-out: LC50
A498 = experiment: NCI-60 screen (SRB), renal cancer; settings: Homo sapiens; for pIC50: A498; for CC50: A498, read-out: LC50
UACC-62 = experiment: NCI-60 screen (SRB), melanoma; settings: Homo sapiens; for pIC50: UACC-62; for CC50: UACC-62, read-out: LC50
[1] = test system: 60 human cancer cell lines; experiment: NCI-60 screen (SRB), whole panel; type: cell-based; settings: Homo sapiens; for pIC50: five-dose screen, read-out: IC50 values against most cell lines (range); for inhibition at 10 µM: single dose 10 μM, mean over 60 cell lines, over 100% = cell death, read-out: Mean growth inhibition (GI) percentage
UO-31 = experiment: NCI-60 screen (SRB), renal cancer; settings: Homo sapiens; for pIC50: UO-31; for CC50: UO-31, read-out: LC50
RPMI-8226 = experiment: NCI-60 screen (SRB), leukemia; settings: Homo sapiens; for pIC50: RPMI-8226; for CC50: RPMI-8226, read-out: LC50
LOX IMVI = experiment: NCI-60 screen (SRB), melanoma; settings: for pIC50 / CC50: Homo sapiens; for CC50: read-out: LC50
M14 = experiment: NCI-60 screen (SRB), melanoma; settings: Homo sapiens; for pIC50: M14; for CC50: M14, read-out: LC50
COLO 205 = experiment: NCI-60 screen (SRB), colon cancer; settings: for pIC50 / CC50: Homo sapiens; for pIC50: COLO 205; for CC50: COLO 205, read-out: LC50
HT29 = experiment: NCI-60 screen (SRB), colon cancer; settings: Homo sapiens; for pIC50: HT-29; for CC50: HT-29, read-out: LC50
HOP-92 = experiment: NCI-60 screen (SRB), non-small cell lung cancer; settings: Homo sapiens; for pIC50: HOP-92; for CC50: HOP-92, read-out: LC50
CCRF-CEM = experiment: NCI-60 screen (SRB), leukemia; settings: Homo sapiens; for CC50: read-out: LC50
SR = experiment: NCI-60 screen (SRB), leukemia; settings: for pIC50 / CC50: Homo sapiens; for CC50: read-out: LC50
HCT-116 = experiment: NCI-60 screen (SRB), colon cancer; settings: Homo sapiens; for pIC50: HCT-116; for CC50: HCT-116, read-out: LC50
EKVX = experiment: NCI-60 screen (SRB), non-small cell lung cancer; settings: Homo sapiens; for CC50: read-out: LC50
SF-295 = experiment: NCI-60 screen (SRB), CNS cancer; settings: Homo sapiens; for pIC50: SF-295; for CC50: SF-295, read-out: LC50
SNB-19 = experiment: NCI-60 screen (SRB), CNS cancer; settings: Homo sapiens; for pIC50: SNB-19; for CC50: SNB-19, read-out: LC50
CAKI-1 = experiment: NCI-60 screen (SRB), renal cancer; settings: Homo sapiens; for pIC50: CAKI-1; for CC50: CAKI-1, read-out: LC50
SK-MEL-5 = experiment: NCI-60 screen (SRB), melanoma; settings: Homo sapiens; for pIC50: SK-MEL-5; for CC50: SK-MEL-5, read-out: LC50
A549/ATCC = experiment: NCI-60 screen (SRB), non-small cell lung cancer; settings: Homo sapiens; for pIC50: A549; for CC50: A549, read-out: LC50
MDA-MB-435 = experiment: NCI-60 screen (SRB), melanoma; settings: Homo sapiens; for pIC50: MDA-MB-435; for CC50: MDA-MB-435, read-out: LC50
IGROV1 = experiment: NCI-60 screen (SRB), ovarian cancer; settings: Homo sapiens; for pIC50: IGROV-1; for CC50: IGROV-1, read-out: LC50
MDA-MB-231/ATCC = experiment: NCI-60 screen (SRB), breast cancer; settings: Homo sapiens; for pIC50: MDA-MB-231; for CC50: MDA-MB-231, read-out: LC50
OVCAR-3 = experiment: NCI-60 screen (SRB), ovarian cancer; settings: Homo sapiens; for pIC50: OVCAR-3; for CC50: OVCAR-3, read-out: LC50
SF-539 = experiment: NCI-60 screen (SRB), CNS cancer; settings: Homo sapiens; for pIC50: SF-539; for CC50: SF-539, read-out: LC50
K-562 = experiment: NCI-60 screen (SRB), leukemia; settings: Homo sapiens; for pIC50: K562; for CC50: K562, read-out: LC50
MALME-3M = experiment: NCI-60 screen (SRB), melanoma; settings: Homo sapiens; for CC50: read-out: LC50
SF-268 = experiment: NCI-60 screen (SRB), CNS cancer; settings: Homo sapiens; for pIC50: SF-268; for CC50: SF-268, read-out: LC50
ACHN = experiment: NCI-60 screen (SRB), renal cancer; settings: Homo sapiens; for CC50: read-out: LC50

COc1cc(OC)c(S(N)(=O)=O)cc1C(=O)C=Cc1ccccc1 [Compound 17a, 5-Cinnamoyl-2,4-dimethoxybenzenesulfonamide] showed a pIC50 (HOP-62) of 5.02, a CC50 (HOP-62) of 51.9 µM and a pIC50 (T-47D) of 5.68. For the same molecule, the CC50 (T-47D) was 51.6 µM, the pIC50 (NCI-H460) was 5.71 and the CC50 (NCI-H460) was 51.2 µM. It also gave a pIC50 (HS 578T) of 5.23, a CC50 (HS 578T) greater than 100 µM and a pIC50 (HCC-2998) of 4.90. The CC50 (HCC-2998) was 54.7 µM, the pIC50 (A498) was 4.77 and the CC50 (A498) was 55.8 µM. The pIC50 (UACC-62) was 4.91, the CC50 (UACC-62) was 59.4 µM and the pIC50 [1] was 4.75 to 6.47. For the same molecule, the inhibition at 10 µM [1] was 71.8%, the pIC50 (UO-31) was 5.32 and the CC50 (UO-31) was 43.5 µM. The pIC50 (RPMI-8226) was 5.53, the CC50 (RPMI-8226) was greater than 100 µM and the pIC50 (LOX IMVI) was 6.47. The CC50 (LOX IMVI) was 41.4 µM, the pIC50 (M14) was 5.12 and the CC50 (M14) was 60.5 µM. It also gave a pIC50 (COLO 205) of 4.97, a CC50 (COLO 205) of 54.2 µM and a pIC50 (HT29) of 5.40. It also gave a CC50 (HT29) of 42.5 µM, a pIC50 (HOP-92) of 5.69 and a CC50 (HOP-92) of 37.1 µM. It also gave a pIC50 (CCRF-CEM) of 5.41, a CC50 (CCRF-CEM) greater than 100 µM and a pIC50 (SR) of 5.76. For the same molecule, the CC50 (SR) was greater than 100 µM, the pIC50 (HCT-116) was 5.83 and the CC50 (HCT-116) was 67.2 µM. It also gave a pIC50 (EKVX) of 4.85, a CC50 (EKVX) of 53.6 µM and a pIC50 (SF-295) of 4.80. It also gave a CC50 (SF-295) of 58.2 µM, a pIC50 (SNB-19) of 4.85 and a CC50 (SNB-19) of 58 µM. For the same molecule, the pIC50 (CAKI-1) was 5.73, the CC50 (CAKI-1) was 39.5 µM and the pIC50 (SK-MEL-5) was 4.75. For the same molecule, the CC50 (SK-MEL-5) was 59.7 µM, the pIC50 (A549/ATCC) was 4.98 and the CC50 (A549/ATCC) was 49 µM. The pIC50 (MDA-MB-435) was 5.67, the CC50 (MDA-MB-435) was 35.9 µM and the pIC50 (IGROV1) was 5.01. It also gave a CC50 (IGROV1) of 77 µM, a pIC50 (MDA-MB-231/ATCC) of 4.92 and a CC50 (MDA-MB-231/ATCC) of 61.6 µM. It also gave a pIC50 (OVCAR-3) of 5.57, a CC50 (OVCAR-3) of 38.3 µM and a pIC50 (SF-539) of 5.61. The CC50 (SF-539) was 30.1 µM, the pIC50 (K-562) was 5.82 and the CC50 (K-562) was greater than 100 µM. For the same molecule, the pIC50 (MALME-3M) was 4.86, the CC50 (MALME-3M) was 61.9 µM and the pIC50 (SF-268) was 5.23. The CC50 (SF-268) was 62.7 µM, the pIC50 (ACHN) was 5.16 and the CC50 (ACHN) was 44.8 µM.
Molecule COc1cc(OC)c(S(N)(=O)=O)cc1C(=O)/C=C/c1ccc(Cl)cc1 [Compound 17b, (E)-5-(3-(4-Chlorophenyl)acryloyl)-2,4-dimethoxybenzenesulfonamide] has a pIC50 (HOP-62) of 5.60, a CC50 (HOP-62) of 25.9 µM and a pIC50 (T-47D) of 4.91. It also gave a CC50 (T-47D) of 64.6 µM, a pIC50 (NCI-H460) of 5.55 and a CC50 (NCI-H460) greater than 100 µM. For the same molecule, the pIC50 (HS 578T) was less than 4.00, the CC50 (HS 578T) was greater than 100 µM and the pIC50 (HCC-2998) was 5.62. For the same molecule, the CC50 (HCC-2998) was 22.3 µM, the pIC50 (A498) was 4.73 and the CC50 (A498) was 62.2 µM. For the same molecule, the pIC50 (UACC-62) was 5.57, the CC50 (UACC-62) was 40.8 µM and the pIC50 [1] was 4.73 to 6.14. It also gave an inhibition at 10 µM [1] of 94.1%, a pIC50 (UO-31) of 5.63 and a CC50 (UO-31) of 33.1 µM. The pIC50 (RPMI-8226) was 5.73, the CC50 (RPMI-8226) was greater than 100 µM and the pIC50 (LOX IMVI) was 6.14. For the same molecule, the CC50 (LOX IMVI) was 7.03 µM, the lethality (LOX IMVI; single dose 10 μM) was 50.40% and the pIC50 (M14) was 5.83. It also gave a CC50 (M14) of 6.7 µM, a lethality (COLO 205; COLO 205, single dose 10 μM) of 30.00% and a pIC50 (COLO 205) of 5.78. For the same molecule, the CC50 (COLO 205) was 5.88 µM, the pIC50 (HT29) was 5.66 and the CC50 (HT29) was 9.97 µM. For the same molecule, the pIC50 (HOP-92) was 5.84, the CC50 (HOP-92) was 24.9 µM and the pIC50 (CCRF-CEM) was 5.82. It also gave a CC50 (CCRF-CEM) greater than 100 µM, a pIC50 (SR) of 5.68 and a CC50 (SR) greater than 100 µM. It also gave a lethality (SR; single dose 10 μM) of 19.50%, a pIC50 (HCT-116) of 6.12 and a CC50 (HCT-116) of 5.13 µM. It also gave a pIC50 (EKVX) of 5.41, a CC50 (EKVX) greater than 100 µM and a pIC50 (SF-295) of 5.41. It also gave a CC50 (SF-295) of 57.6 µM, a pIC50 (SNB-19) of 5.50 and a CC50 (SNB-19) greater than 100 µM. It also gave a pIC50 (CAKI-1) of 5.72, a CC50 (CAKI-1) of 32.9 µM and a pIC50 (SK-MEL-5) of 5.31. The CC50 (SK-MEL-5) was 43 µM, the pIC50 (A549/ATCC) was 5.50 and the CC50 (A549/ATCC) was greater than 100 µM. For the same molecule, the pIC50 (MDA-MB-435) was 5.68, the CC50 (MDA-MB-435) was 29.3 µM and the pIC50 (IGROV1) was 5.53. It also gave a CC50 (IGROV1) greater than 100 µM, a pIC50 (MDA-MB-231/ATCC) of 4.72 and a CC50 (MDA-MB-231/ATCC) greater than 100 µM. For the same molecule, the pIC50 (OVCAR-3) was 5.45, the CC50 (OVCAR-3) was 66.8 µM and the pIC50 (SF-539) was 5.67. For the same molecule, the CC50 (SF-539) was 12.6 µM, the pIC50 (K-562) was 5.73 and the CC50 (K-562) was greater than 100 µM. It also gave a pIC50 (MALME-3M) of 5.55, a CC50 (MALME-3M) of 87.4 µM and a pIC50 (SF-268) of 5.43. It also gave a CC50 (SF-268) greater than 100 µM, a pIC50 (ACHN) of 5.50 and a CC50 (ACHN) of 33.4 µM.
